From paper PMC3223731, “Environment sensing and response mediated by ABC transporters” (BMC Genomics, 2011) come the findings set out here.

Common to all, as to type: binding
The target of one experiment is T1, RPA0058 (Rhodopseudomonas palustris, UniProt Q6NDP7).
T1 construct: gene ugpB; mature form, signal peptide removed; N-terminal 6xHis-TEV tag retained; E. coli
T1 sequence (Q6NDP7 24-442): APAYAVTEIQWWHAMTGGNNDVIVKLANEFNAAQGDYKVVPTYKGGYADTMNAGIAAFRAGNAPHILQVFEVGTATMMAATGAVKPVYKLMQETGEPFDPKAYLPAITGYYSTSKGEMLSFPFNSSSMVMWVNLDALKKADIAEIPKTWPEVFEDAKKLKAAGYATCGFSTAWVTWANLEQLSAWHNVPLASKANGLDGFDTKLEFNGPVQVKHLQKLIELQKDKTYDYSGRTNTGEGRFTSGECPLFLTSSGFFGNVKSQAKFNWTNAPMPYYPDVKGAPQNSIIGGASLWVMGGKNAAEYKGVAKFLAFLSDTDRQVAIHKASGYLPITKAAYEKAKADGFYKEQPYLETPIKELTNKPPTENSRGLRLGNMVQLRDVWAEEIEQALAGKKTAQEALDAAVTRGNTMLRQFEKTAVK
The experiment can be described thus: fluorescence thermal shift (SYPRO orange). To be noted: 100x ligand over protein (5 or 10 µM protein); 100 mM HEPES, 150 mM NaCl, pH 7.5.

A further experiment deals with T2, RPA0668 (hbaE) (Rhodopseudomonas palustris, UniProt G3XCQ4).
T2 construct: mature form, signal peptide removed; N-terminal 6xHis-TEV tag retained; E. coli
Briefly: fluorescence thermal shift (SYPRO orange). To be noted: 100x ligand over protein (5 or 10 µM protein); 100 mM HEPES, 150 mM NaCl, pH 7.5.

A further experiment addresses T3, RPA2014 (Rhodopseudomonas palustris, UniProt Q6N890).
T3 construct: gene TX73_010380; mature form, signal peptide removed; N-terminal 6xHis-TEV tag retained; E. coli
T3 sequence (Q6N890 31-371): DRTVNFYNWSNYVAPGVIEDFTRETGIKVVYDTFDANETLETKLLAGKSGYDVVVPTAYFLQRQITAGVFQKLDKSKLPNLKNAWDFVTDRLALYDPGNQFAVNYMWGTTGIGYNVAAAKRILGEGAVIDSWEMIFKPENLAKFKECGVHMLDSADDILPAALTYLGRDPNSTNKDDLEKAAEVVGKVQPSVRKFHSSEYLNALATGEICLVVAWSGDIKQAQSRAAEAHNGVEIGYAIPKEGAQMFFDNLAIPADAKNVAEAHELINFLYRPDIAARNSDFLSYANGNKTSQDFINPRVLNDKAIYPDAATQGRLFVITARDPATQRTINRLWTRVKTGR
Briefly: fluorescence thermal shift (SYPRO orange). To be noted: 100x ligand over protein (5 or 10 µM protein), 100 mM HEPES, 150 mM NaCl, pH 7.5.

A further experiment concerns the target T4, RPA1789 (Rhodopseudomonas palustris, UniProt Q6N8W4).
T4 construct: mature form, signal peptide removed; N-terminal 6xHis-TEV tag retained; E. coli
T4 sequence (Q6N8W4 27-385): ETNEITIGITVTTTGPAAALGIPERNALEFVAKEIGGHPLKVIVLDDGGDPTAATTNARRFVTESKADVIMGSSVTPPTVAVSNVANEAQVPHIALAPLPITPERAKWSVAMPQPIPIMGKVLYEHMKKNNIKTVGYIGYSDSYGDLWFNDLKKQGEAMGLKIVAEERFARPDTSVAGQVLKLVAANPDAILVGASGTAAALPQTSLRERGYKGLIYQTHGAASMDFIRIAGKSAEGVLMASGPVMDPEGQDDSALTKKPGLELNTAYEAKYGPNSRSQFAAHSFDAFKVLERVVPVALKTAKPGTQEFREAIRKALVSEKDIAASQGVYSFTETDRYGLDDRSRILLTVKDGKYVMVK
The experiment can be described thus: fluorescence thermal shift (SYPRO orange). To be noted: 100x ligand over protein (5 or 10 µM protein); 100 mM HEPES, 150 mM NaCl, pH 7.5.

The next experiment addresses T5, RPA3810 (Rhodopseudomonas palustris, UniProt Q6N384).
T5 construct: gene TX73_019730; mature form, signal peptide removed; N-terminal 6xHis-TEV tag retained; E. coli
T5 sequence (Q6N384 23-368): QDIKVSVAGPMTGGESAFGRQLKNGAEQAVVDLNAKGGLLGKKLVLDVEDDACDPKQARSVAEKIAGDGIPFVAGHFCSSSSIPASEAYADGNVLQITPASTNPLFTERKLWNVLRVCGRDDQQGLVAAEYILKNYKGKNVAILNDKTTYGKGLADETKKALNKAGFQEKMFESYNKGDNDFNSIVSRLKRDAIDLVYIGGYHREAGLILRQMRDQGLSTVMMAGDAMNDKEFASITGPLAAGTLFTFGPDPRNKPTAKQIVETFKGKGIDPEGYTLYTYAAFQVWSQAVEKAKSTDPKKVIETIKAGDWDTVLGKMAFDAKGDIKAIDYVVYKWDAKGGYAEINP
Briefly: fluorescence thermal shift (SYPRO orange). The note with it: 100x ligand over protein (5 or 10 µM protein); 100 mM HEPES, 150 mM NaCl, pH 7.5.

The next experiment addresses T6, RPA4780 (Rhodopseudomonas palustris, UniProt Q6N0I2).
T6 construct: gene pstS; mature form, signal peptide removed; N-terminal 6xHis-TEV tag retained; E. coli
The note with it: 100x ligand over protein (5 or 10 µM protein); 100 mM HEPES, 150 mM NaCl, pH 7.5.

Another experiment concerns the target T7, RPA0985 (Rhodopseudomonas palustris, UniProt Q6NB45).
T7 construct: mature form, signal peptide removed; N-terminal 6xHis-TEV tag retained; E. coli
T7 sequence (Q6NB45 23-390): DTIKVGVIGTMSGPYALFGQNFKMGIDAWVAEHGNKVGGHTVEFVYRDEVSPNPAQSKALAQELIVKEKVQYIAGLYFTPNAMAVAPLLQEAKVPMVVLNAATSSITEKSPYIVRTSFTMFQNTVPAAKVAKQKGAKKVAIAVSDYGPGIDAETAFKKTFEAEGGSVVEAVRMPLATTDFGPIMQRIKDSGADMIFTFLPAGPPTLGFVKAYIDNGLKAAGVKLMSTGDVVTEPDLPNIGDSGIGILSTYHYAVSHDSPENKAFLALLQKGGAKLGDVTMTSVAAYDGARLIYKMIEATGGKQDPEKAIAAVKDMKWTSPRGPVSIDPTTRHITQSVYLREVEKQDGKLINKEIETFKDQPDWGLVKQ
The experiment can be described thus: fluorescence thermal shift (SYPRO orange). The note with it: 100x ligand over protein (5 or 10 µM protein); 100 mM HEPES, 150 mM NaCl, pH 7.5.

The target of another experiment is T8, RPA4029 (Rhodopseudomonas palustris, UniProt Q6N2M1).
T8 construct: gene TX73_020875; mature form, signal peptide removed; N-terminal 6xHis-TEV tag retained; E. coli
T8 sequence (Q6N2M1 28-392): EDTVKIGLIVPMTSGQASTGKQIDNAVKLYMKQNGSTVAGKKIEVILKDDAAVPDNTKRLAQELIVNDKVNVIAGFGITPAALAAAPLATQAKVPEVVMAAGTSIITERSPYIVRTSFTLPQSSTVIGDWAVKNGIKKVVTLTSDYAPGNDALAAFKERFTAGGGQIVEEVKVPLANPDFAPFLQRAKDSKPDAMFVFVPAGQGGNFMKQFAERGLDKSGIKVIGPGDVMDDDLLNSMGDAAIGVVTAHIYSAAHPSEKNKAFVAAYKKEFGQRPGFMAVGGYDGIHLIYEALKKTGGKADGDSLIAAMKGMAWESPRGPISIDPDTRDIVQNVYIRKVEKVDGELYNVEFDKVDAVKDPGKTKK
The experiment can be described thus: fluorescence thermal shift (SYPRO orange). To be noted: 100x ligand over protein (5 or 10 µM protein); 100 mM HEPES, 150 mM NaCl, pH 7.5.

The structures appear in SMILES notation.

T2 sequence (G3XCQ4 entry or part of it): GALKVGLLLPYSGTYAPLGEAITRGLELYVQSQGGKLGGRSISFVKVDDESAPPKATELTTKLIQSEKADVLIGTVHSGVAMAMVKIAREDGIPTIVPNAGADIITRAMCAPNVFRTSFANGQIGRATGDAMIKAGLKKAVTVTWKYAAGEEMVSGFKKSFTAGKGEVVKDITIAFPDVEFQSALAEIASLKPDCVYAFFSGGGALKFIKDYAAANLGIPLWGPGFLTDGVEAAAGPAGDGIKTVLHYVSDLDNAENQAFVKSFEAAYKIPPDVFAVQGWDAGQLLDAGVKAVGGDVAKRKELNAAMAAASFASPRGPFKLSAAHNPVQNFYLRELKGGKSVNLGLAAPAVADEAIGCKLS
T6 sequence (Q6N0I2 22-336): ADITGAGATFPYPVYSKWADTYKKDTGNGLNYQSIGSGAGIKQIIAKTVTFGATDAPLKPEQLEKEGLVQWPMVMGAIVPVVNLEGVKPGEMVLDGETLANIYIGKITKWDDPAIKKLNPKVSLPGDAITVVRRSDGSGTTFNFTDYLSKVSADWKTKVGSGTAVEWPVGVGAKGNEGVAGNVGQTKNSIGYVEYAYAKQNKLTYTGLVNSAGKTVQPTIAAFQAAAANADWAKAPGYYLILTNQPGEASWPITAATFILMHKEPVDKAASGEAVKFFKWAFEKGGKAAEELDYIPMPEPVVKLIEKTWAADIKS

With `O=P(O)(O)OC[C@H](O)CO` [glycerol-3-phosphate], on RPA0058, the ΔTm result is “RPA0058 and RPA4780 exhibited specific stabilization by glycerol-3-phosphate and phosphate, respectively”.
In the case of `O=C(O)c1ccccc1O` [salicylic acid], the ΔTm entry on RPA0668 (hbaE) is “closely related derivatives, 4-hydroxybenzoic acid, salicylate, and benzaldehyde”.
With `NCCCNCCCCNCCCN` [spermine], the ΔTm result at RPA2014 (low affinity) was “spermine still binds this protein with low affinity in the FTS assay”.
As for `O=C(O)/C=C/c1ccc(O)cc1` [p-coumaric acid], the ΔTm result at RPA1789 was “one protein bound p-coumaric acid, ferulic acid, and cinnamic acid with good affinities”.
On to `NCC(=O)O` [glycine], for which the ΔTm result on RPA3810 was “RPA3810, shifted primarily with amino acids with preferences for alanine, glycine and serine”.
Regarding `O=C(O)/C=C/c1ccccc1` [cinnamic acid], the ΔTm result on RPA1789 was “one protein bound p-coumaric acid, ferulic acid, and cinnamic acid with good affinities”.
For `O=P(O)(O)O` [phosphate], the ΔTm entry on RPA4780 was “RPA0058 and RPA4780 exhibited specific stabilization by glycerol-3-phosphate and phosphate, respectively”.
Take `COc1cc(/C=C/C(=O)O)ccc1O` [ferulic acid]: the ΔTm entry on RPA1789 is “one protein bound p-coumaric acid, ferulic acid, and cinnamic acid with good affinities”.
Consider `NCCCCN` [putrescine], for which the ΔTm result at RPA2014 is recorded as “indeed shifted with putrescine preferentially over spermine”.
Regarding `O=C(O)c1ccc(O)cc1` [4-hydroxybenzoic acid], the ΔTm at RPA0985 was 29.5 °C; at RPA4029, 17 °C; on RPA0668 (hbaE), “closely related derivatives, 4-hydroxybenzoic acid, salicylate, and benzaldehyde”.

As a reminder, the ΔTm is the shift of the melting midpoint relative to a reference.
